# Target: Mitogen-activated protein kinase kinase kinase kinase 1 (Homo sapiens, UniProt Q92918)
# Test: Enzymatic Activity Assay: Recombinant HPK1 kinase domain produced via baculovirus infection of insect cells was obtained from Proteros (Proteros Biostructures #PR-0322) and was pre-activated in the presence of 2 mM ATP (Sigma-Aldrich, cat #GE27-2056-01) and 2 mM magnesium chloride for 16 hours at 4° C. The protein reaction mixture was then loaded to a desalting column (Thermo Fisher Scientific, Cat #89889) to remove excess ATP. HPK1 was eluted with buffer containing 20 mM Tris (2-Amino-2-(hydroxymethyl)propane-1,3-diol) pH 8.0, 150 mM NaCl, 2 mM dithiothreitol and 5% glycerol, and was frozen at −80° C. for later use. HPK1 dual phosphorylation was confirmed by mass spectrometry.Ten nanoliters of test compounds dissolved in DMSO at various concentrations were dispensed into a 384-well ProxiPlate (PerkinElmer #6008289). Five microliters of a solution of recombinant HPK1 diluted in HPK1 kinase assay buffer (50 mM BES [N,N-Bis(2-hydroxyethyl)-2-aminoethanesulfonic acid], pH 7.0; 10 mM magnesium chloride; 0.01% Triton X-100; 1 mM dithiothreitol; 0.01% bovine serum albumin; 0.1 mM sodium orthovanadate) was added to the compound-containing plate and was incubated for 15 minutes at 25° C. Five microliters of a mixture of ATP (Sigma-Aldrich #A6559) and peptide substrate STK S1 (Cisbio #61ST1BLC) diluted in HPK1 kinase assay buffer was then added to start the reaction. […]
# Chain of Mitogen-activated protein kinase kinase kinase kinase 1 (Q92918 whole entry, the tested form may be a part): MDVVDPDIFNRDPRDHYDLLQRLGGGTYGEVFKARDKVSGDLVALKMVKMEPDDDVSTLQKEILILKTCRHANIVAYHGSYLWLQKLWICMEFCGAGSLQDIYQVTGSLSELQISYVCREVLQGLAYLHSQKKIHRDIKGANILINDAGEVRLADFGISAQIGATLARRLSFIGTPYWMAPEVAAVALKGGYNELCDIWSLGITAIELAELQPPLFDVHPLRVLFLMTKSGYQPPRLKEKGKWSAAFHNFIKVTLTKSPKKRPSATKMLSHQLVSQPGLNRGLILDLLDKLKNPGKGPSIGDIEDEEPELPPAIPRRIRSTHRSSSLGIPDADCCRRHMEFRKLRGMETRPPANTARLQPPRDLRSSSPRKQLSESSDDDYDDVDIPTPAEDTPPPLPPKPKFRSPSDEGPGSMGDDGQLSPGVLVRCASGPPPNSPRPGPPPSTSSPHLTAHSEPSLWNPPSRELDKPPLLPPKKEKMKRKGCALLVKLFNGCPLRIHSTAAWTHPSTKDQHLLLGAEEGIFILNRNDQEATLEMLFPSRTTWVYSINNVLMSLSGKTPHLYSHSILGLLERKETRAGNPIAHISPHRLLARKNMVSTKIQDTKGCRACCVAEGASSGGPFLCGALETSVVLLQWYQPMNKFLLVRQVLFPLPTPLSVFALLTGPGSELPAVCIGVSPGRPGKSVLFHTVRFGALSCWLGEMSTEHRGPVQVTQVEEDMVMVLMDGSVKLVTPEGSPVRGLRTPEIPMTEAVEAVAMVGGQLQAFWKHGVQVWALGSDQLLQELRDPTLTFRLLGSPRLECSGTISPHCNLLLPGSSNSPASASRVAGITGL
row,IC50 [pM],Structure (SMILES)
1,300,CC(C)n1cnc2cc(-c3ccc4c(c3)N([C@H]3C[C@@H](N5CCC(C)(C)C5)C3)C(=O)C43CCN(C(=O)[C@@H]4OCC[C@@H]4C)CC3)nc(Nc3ccncc3F)c21
2,200,CC(C)n1cnc2cc(-c3ccc4c(c3)N([C@H]3C[C@@H](N5CCC(C)(C)C5)C3)C(=O)C43CCN(C(=O)[C@H]4CC[C@@H](C)O4)CC3)nc(Nc3ccncc3F)c21

# Reference: ChEMBL document CHEMBL5728586, “Substituted 6-azabenzimidazole compounds” (2021)
